Common to all, as to assay type: in vivo, Sprague-Dawley rats
In assay [1] the test system is MAP2. The experiment in a line: MAP2 immunohistochemistry of stroke brains. The source says:
(§1) At scheduled intervals post-stroke (either 12 weeks or 24 weeks), rats of Example 1 were randomly euthanized (n=12 per treatment), perfused by transcardial perfusion with 4% paraformaldehyde. The brains were dissected, post-fixed for overnight in 4% paraformaldehyde, then subsequently immersed in 30% sucrose until immunohistochemical processing. Brain section preparations were designed to identify stroke-induced cerebral infarction and NSI-189-induced neurogenic effects.
(§2) Brains were embedded in gelatin blocks and sectioned on a freezing sliding microtome at 40-μm. The sections were washed in PBS 5×10 min to remove the antigen preservative solution. Endogenous peroxidase was blocked using 3% H2O2 for 15 minutes. The sections were then incubated in 1% Triton-X100 for 30 minutes, and then blocked with 5% Normal Horse Serum (NETS) for 1 hour. The sections were incubated with the primary antibody that binds Ki67 (1:2000, Cat. #: ab16667, Abcam, CA) or that binds MAP2 (1:2000, Cat. #: AB5622, Millipore, MA) overnight, rinsed 5×5 min in PBS prior to pre-incubation in 5% NHS for 1 hour, then incubated with the secondary antibody which corresponded to the respective host of the primary antibody (Donkey or Rabbit, 1:2000, Cat. #: 711-066-152, Jackson ImmunoResearch Laboratories, Inc, PA) for 90 minutes. After rinsing in PBS (5×5 min), the sections were incubated with peroxidase-conjugated streptavidin (1:5000, Cat. #: 016-030-084, Jackson ImmunoResearch Laboratories, Inc, PA) with 1% NHS. The sections were washed 5×5 min in PBS after the streptavidin, prior to developing with DAB (3,3′-Diaminobenzidine Tetrahydrochloride Hydrate, Cat #: 1001306853, Sigma-Aldrich, St. Louis, Mo.) and Nickel chloride. After DAB processing, the sections were rinsed, mounted, and air-dried overnight. The slides were dehydrated, and coverslipped with DPX Mounting Medium (Cat #: 13512, Electron Microscopy Sciences, Hatfield, Pa.).
The slides were imaged and reviewed under Nikon bright-field microscope (Nikon, Tokyo, Japan). The regions of interest (ROIs), including the cerebral cortex, the hippocampal subfields (CA1+CA2, CA3 and DG) were contoured rostro-caudally and the immunoreactivity of the MAP2 density was measured by Nikon NIS-Element software and Ki67+ cells counted rostro-caudally along the subgranular zone (SGZ) by Image-Pro Premier (v10.10), respectively. The slides were coded and blinded to the analysts during the course of the study. After completion, quantitative data were extracted and transferred for the statistical analysis (Prism, GraphPad®, La Jolla, Calif.). The data values between groups were compared using ANOVA with Tukey's post-hoc tests (p<0.05).

The subject of assay [2] is middle cerebral artery occlusion (MCAo) stroke rats. In words: Elevated body swing test (EBST) after MCAo stroke. The text has this:
(§3) A. Stroke surgery. Sixty (60) adult Sprague-Dawley, male rats (weighing around 250 g at beginning of the study) received experimental stroke surgery using the middle cerebral artery occlusion (MCAo) model, under aseptic conditions. […] were anesthetized with 1-2% isoflurane in nitrous oxide/oxygen (69%/30%) using a face mask and checked for pain reflexes. Under deep anesthesia, animals underwent the MCAo surgery which entails insertion of a filament through the carotid artery to reach the junction of the MCA, thus blocking the blood flow from the common carotid artery, as well as from the circle of Willis.
The right common carotid artery was identified and isolated through a ventral midline cervical incision and suture size 4-0, made of sterile, non-absorbable suture (Ethicon, Inc.), with the diameter of the suture tip tapered to 24 to 26-gauge size using a rubber cement. […]
To further ensure similar degree of stroke insults, physiological parameters including PaO2, PaCO2, and plasma pH measurements were monitored. Based on laser Doppler readouts and behavioral tests after MCAs, a total of 48 animals were enrolled in this study. […]
C. […] The direction of the swing, either left or right, was counted once the animals head moves sideways approximately 10 degrees from the midline position of the body. […]

Assay [3] shares this test system. In words: Bederson neurological exam after MCAo stroke.
Source text: as §3
The right common carotid artery was identified and isolated through a ventral midline cervical incision and suture size 4-0, made of sterile, non-absorbable suture (Ethicon, Inc.), with the diameter of the suture tip tapered to 24 to 26-gauge size using a rubber cement. About 15 to 17 mm of the filament was inserted from the junction of the external and internal carotid arteries to block the MCA. The right MCA was occluded for one hour. A heating pad and a rectal thermometer allowed maintenance of body temperature within normal limits (37±0.3° C.).
To further ensure similar degree of stroke insults, physiological parameters including PaO2, PaCO2, and plasma pH measurements were monitored. Based on laser Doppler readouts and behavioral tests after MCAs, a total of 48 animals were enrolled in this study.
B. Drug Treatment. In the treated subjects, 30 mg/kg of the phosphate of formula (2) wherein R^1 is isoamyl (NSI-189 H3PO4 (mol. wt. 464.50)), 99.8% pure based on the weight of the API (active pharmaceutical ingredient) base without the weight of phosphate salt was administered orally in 0.03N HCl in deionized water (n=24) or vehicle (n=24) was administered following MCAo 6 hours after stroke, and daily for the next 12 weeks.
About one hour after the EBST, the Bederson neurological exam was conducted using 3 tests: (1) forelimb retraction—measuring the ability of the rat to replace the forelimb after it was displaced laterally by 2 to 3 cm, graded from 0 (immediate replacement) to 3 (replacement after several seconds or no replacement); (2) beam walking ability, graded 0 for a rat that readily traversed a 2.4-cm-wide, 80-cm-long beam to 3 for a rat unable to stay on the beam for 10 seconds; and (3) bilateral forepaw grasp—the ability to hold onto a 2-mm-diameter steel rod, graded 0 for a rat with normal forepaw grasping behavior to 3 for a rat unable to grasp with the forepaws. The scores from all 3 tests, which were done over a period of about 15 minutes on each assessment day, were added to give a mean neurologic deficit score (maximum possible score, 9 points divided by 3 tests=3). […]

Assay [4] has as its system Ki67. In words: Ki67 immunohistochemistry of stroke brains.
Source text: as §1
as §2, with “The sections were washed 5×5 min in PBS after the streptavidin, prior to developing with DAB (3,3′-Diaminobenzidine Tetrahydrochloride Hydrate, Cat #: 1001306853, Sigma-Aldrich, St. Louis, Mo.) and Nickel chloride. After DAB processing, the sections were rinsed, mounted, and air-dried overnight. The slides were dehydrated, and coverslipped with DPX Mounting Medium (Cat #: 13512, Electron Microscopy Sciences, Hatfield, Pa.).” left out
The slides were imaged and reviewed under Nikon bright-field microscope (Nikon, Tokyo, Japan). The regions of interest (ROIs), including the cerebral cortex, the hippocampal subfields (CA1+CA2, CA3 and DG) were contoured rostro-caudally and the immunoreactivity of the MAP2 density was measured by Nikon NIS-Element software and Ki67+ cells counted rostro-caudally along the subgranular zone (SGZ) by Image-Pro Premier (v10.10), respectively. […] After completion, quantitative data were extracted and transferred for the statistical analysis (Prism, GraphPad®, La Jolla, Calif.). […]

[5] abbreviates: 12 weeks and 24 weeks post-stroke, vs vehicle, p's>0.05.
[6] abbreviates: vs vehicle-treated stroke animals.

On to `CC(C)CCNc1ncccc1C(=O)N1CCN(Cc2ccccc2)CC1.O=P(O)(O)O` [NSI-189 phosphate], for which the “MAP2 density in the cerebral cortex” value was “amplified MAP2 density” in assay [1] (12-week period, vs vehicle, p's<0.05) and “only detected at the 12-week period” in assay [1] (24-week time point, vs vehicle). The “MAP2 density in the hippocampus” value in assay [1] (12-week time point, vs vehicle, p's<0.05) is on record as “increased MAP2 density”; in assay [1] (24-week time point, vs vehicle, p's<0.05) it was “increased MAP2 density”. Further, the “cerebral infarction by MAP2 expression in the cortex and striatum” value in assay [1] (setting [5]) was “did not significantly differ between groups”. Moreover, the “MAP2 staining (neurogenesis) in the peri-infarct cortex” value in assay [1] (setting [6]) is “increased Ki67 and MAP2 staining”. Besides, the “restoring motor skills in the EBST” value in assay [2] (30 mg/kg orally 6 hours after stroke and daily for 12 weeks, vs vehicle) is “successful in restoring motor skills”. The “performance in the EBST (FIG. 1)” value in assay [2] (30 mg/kg orally daily for 12 weeks, controls showed no such recovery) is “recovered performance in the EBST almost to baseline levels”. Also, the “restoring motor skills in the Bederson neurological exam” value in assay [3] (MCAo rats, 30 mg/kg orally 6 hours after stroke and daily for 12 weeks, vs vehicle) was “successful in restoring motor skills”. Besides, in assay [3] (MCAo rats, 30 mg/kg orally daily for 12 weeks, after 6 months), the “performance in the Bederson neurological exam (FIG. 2)” value was “performance approaching that of control even after 6 months”. The “control of motor skills compared to vehicle animals” value in assay [3] (day 3 post stroke, p<0.05) is listed as “showed control of motor skills as early as day 3 post stroke”. Besides, the “improvement of motor skills over time compared to untreated animals” value in assay [3] (during 12 weeks of drug treatment and the next 12 weeks after withdrawal, p<0.05) is on record as “continued to improve over time compared to untreated animals”. Moreover, in assay [4] (setting [5]), the “Ki67 level in hippocampal subgranular zone (SGZ)” value was “comparable levels of Ki67”. Moreover, in assay [4] (setting [5]), the “Ki67 level in subventricular zone (SVZ)” value was “comparable levels of Ki67”. Moreover, in assay [4] (setting [6]), the “Ki67 staining (cell proliferation) in the peri-infarct cortex” value is reported as “increased Ki67”.

These data come from patent US20180228787A1, “AMELIORATION OF CERTAIN DEFICIENCIES DUE TO STROKE” (NEURALSTEM, INC., priority 2017, published 2018).
